Laboratory results: patent US7807663B2, “Therapeutic agents for diabetes” (Ajinomoto Co., Inc., priority 2003, dated 2010)
Values after ≈ are worked out from the molar mass of the structure shown.

Tests used:
adipose cells of rats = assay: Evaluation of the sugar transportation activity (2-[14C(U)]-deoxy-D-glucose incorporation); type: cell-based, Wistar rats; conditions: concentration with reinforcing effect of 50% of that of insulin (100 nM) = 100%; rat adipose cells, 30 min pre-culture at 37° C., 5 min uptake
Method in brief: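 Collagenase-isolated epididymal adipocytes from male Wistar rats in 2% BSA/KRH (pH 7.6) preincubated with compound 30 min at 37 °C, then pulsed with 2-[14C(U)]-deoxy-D-glucose (0.5 μCi/sample) 5 min; uptake stopped with 10 μM cytochalasin B, cells separated through dinonyl phthalate and counted by scintillation. EC50 (μg/mL) = concentration giving 50% of the 100 nM insulin effect.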

C57BL/6NCrj mice = assay: Combinational effect with insulin secretagogue (gliclazide) using normal mice (Example 1); type: in vivo; conditions: compound 100 mg/kg oral combined with gliclazide 3 mg/kg oral, compared with alone groups
Procedure: FIG. 1 is a chart showing a combinational effect of the compound (II) and gliclazide in Example 1 (average value±standard deviation, each group N=4).
The compound (II) of the Compound No. 96 in above Table 1, which is indicated by the following structural formula, was used for the investigation. The compound is that described as Example 129 in WO02/44180 and synthesized in accordance with the method described in the international publication.
(§1) The compound (II) (100 mg/kg) was orally administered to C57BL/6NCrj mice (11 week age, male) and soon after that, gliclazide (3 mg/kg) was orally administered. After administration, the blood was taken from their caudal veins over time to determine the blood glucose level. Area under the curve of blood glucose level changes until 70 minutes after the administration was set as an index and variations from a control group (Vehicle administered group) were compared.

KK-Ay mice = assay: Combinational effect with biguanide (metformin) using KK-Ay mice (Example 4); type: in vivo; conditions: combined with metformin, compared with alone groups, same experiment as Example 3
Procedure: (§2) The compound (III) (30 mg/kg) was orally administered to C57BL/KsJ-db/bdJcl mice (10 week age, male) and soon after that, metformin (100 mg/kg) was orally administered. 60 minutes after administration, the blood was taken from their caudal veins to determine the blood glucose level.
The same experiment is conducted as that of Example 3 except that the compounds of the Compound Nos. 6, 8, 62, 80, 81, 88, 91, 96, 105, 106, 129, 130, 131 and 132 in Tables 1 and 2 are used instead of the compound (III), and KK-Ay mice are used instead of db/bd mice.

C57BL/KsJ-db/bdJcl mice [1] = assay: Combinational effect with glitazone (pioglitazone) using db/db mice, oral glucose load (Examples 5 and 6); type: in vivo; conditions: single oral administration combined with pioglitazone 10 mg/kg/day oral for 10 days, compared with alone groups
Procedure: The oral glucose load experiments are conducted using C57BL/KsJ-db/bdJcl mice in the conditions with or without the oral administeration of pioglitazone (10 mg/kg/day) for 10 days and with or without a single oral administration of the compound (III).
The same experiment is conducted as that of Example 5 except that the compounds of the Compound Nos. 6, 8, 62, 80, 81, 88, 91, 96, 105, 106, 129, 130, 131 and 132 in Tables 1 and 2 are used instead of the compound (III).

C57BL/KsJ-db/bdJcl mice [2] = assay: Combinational effect with insulin using db/db mice (Examples 7 and 8); type: in vivo; conditions: combined with insulin 0.2 U/kg, compared with alone groups, same experiment as Example 3
Procedure: The compound (III) (30 mg/kg) was orally administered to C57BL/KsJ-db/bdJcl mice (10 week age, male) and soon after that, metformin (100 mg/kg) was orally administered. 60 minutes after administration, the blood was taken from their caudal veins to determine the blood glucose level. The same experiment is conducted as that of Example 3 except that insulin (0.2 U/kg) is used instead of metformin. […] The same experiment is conducted as that of Example 7 except that the compounds of the Compound Nos. 6, 8, 62, 80, 81, 88, 91, 96, 105, 106, 129, 130, 131 and 132 in Tables 1 and 2 are used instead of the compound (III).

GK rats = assay: Combinational effect with insulin secretagogue (gliclazide) using GK rats (Example 2); type: in vivo; conditions: combined with gliclazide, compared with alone groups, same experiment as Example 1
Procedure: as §1
The same experiment is conducted as that of Example 1 except that the compounds of the Compound Nos. 6, 8, 62, 80, 81, 88, 91, […], 105, 106, 129, 130, 131 and 132 in Tables 1 and 2 are used instead of the compound (II), and GK rats are used instead of normal mice.

C57BL/KsJ-db/bdJcl mice [3] = assay: Combinational effect with biguanide (metformin) using db/db mice (Example 3); type: in vivo; conditions: compound 30 mg/kg oral combined with metformin 100 mg/kg oral, compared with alone groups
Procedure: FIG. 2 is a chart showing a combinational effect of the compound (III) and metformin in Example 3 (average value+standard deviation, each group N=6).
The compound (III) of the Compound No. 98 in above Table 1, which is indicated by the following structural formula, was used for the investigation. The compound is that described as Example 131 in WO02/44180 and synthesized in accordance with the method described in the international publication.
as §2

## CCOCC(=O)N1[C@@H]2CCCC[C@H]2NC2=C(C(=O)NC2)[C@H]1c1ccccc1CC [Compound 96]
Adipose cells of rats
  EC50: 5.4 µg/mL (≈ 13.6 µM)
C57BL/6NCrj mice
  hypoglycemic action (area under the curve of blood glucose level changes until 70 minutes, variation from vehicle group): remarkable hypoglycemic action
KK-Ay mice
  hypoglycemic action (blood glucose level): remarkable hypoglycemic action
C57BL/KsJ-db/bdJcl mice [1]
  hypoglycemic action (oral glucose load): remarkable hypoglycemic action
C57BL/KsJ-db/bdJcl mice [2]
  hypoglycemic action (blood glucose level): remarkable hypoglycemic action

## CC(=O)N1[C@@H]2CCCC[C@H]2NC2=C(C(=O)NC2)[C@H]1c1ccccc1C [Compound 88]
Adipose cells of rats
  A: sugar transportation activity (EC50): 5 µg/mL
GK rats
  hypoglycemic action (blood glucose level): remarkable hypoglycemic action
KK-Ay mice
  hypoglycemic action (blood glucose level): remarkable hypoglycemic action
C57BL/KsJ-db/bdJcl mice [1]
  hypoglycemic action (oral glucose load): remarkable hypoglycemic action
C57BL/KsJ-db/bdJcl mice [2]
  hypoglycemic action (blood glucose level): remarkable hypoglycemic action

## CCC(=O)N1[C@@H]2CCCC[C@H]2NC2=C(C(=O)NC2)[C@H]1c1ccccc1 [Compound 130]
Adipose cells of rats
  A: sugar transportation activity (EC50): 1.5 µg/mL
GK rats
  hypoglycemic action (blood glucose level): remarkable hypoglycemic action
KK-Ay mice
  hypoglycemic action (blood glucose level): remarkable hypoglycemic action
C57BL/KsJ-db/bdJcl mice [1]
  hypoglycemic action (oral glucose load): remarkable hypoglycemic action
C57BL/KsJ-db/bdJcl mice [2]
  hypoglycemic action (blood glucose level): remarkable hypoglycemic action

## COc1ccccc1[C@@H]1C2=C(CNC2=O)N[C@@H]2CCCC[C@H]2N1C(=O)CO [Compound 8]
Adipose cells of rats
  A: sugar transportation activity (EC50): 2 µg/mL
GK rats
  hypoglycemic action (blood glucose level): remarkable hypoglycemic action
KK-Ay mice
  hypoglycemic action (blood glucose level): remarkable hypoglycemic action
C57BL/KsJ-db/bdJcl mice [1]
  hypoglycemic action (oral glucose load): remarkable hypoglycemic action
C57BL/KsJ-db/bdJcl mice [2]
  hypoglycemic action (blood glucose level): remarkable hypoglycemic action

## CCc1ccccc1[C@@H]1C2=C(CNC2=O)N[C@@H]2CCCC[C@H]2N1C(C)=O [Compound 98]
Adipose cells of rats
  EC50: 4 µg/mL (≈ 11.3 µM)
GK rats
  hypoglycemic action (blood glucose level): remarkable hypoglycemic action
C57BL/KsJ-db/bdJcl mice [3]
  hypoglycemic action (blood glucose level 60 minutes after administration): remarkable hypoglycemic action
C57BL/KsJ-db/bdJcl mice [1]
  hypoglycemic action (oral glucose load): remarkable hypoglycemic action
C57BL/KsJ-db/bdJcl mice [2]
  hypoglycemic action (blood glucose level): remarkable hypoglycemic action

## CCC(=O)N1[C@@H]2CCCC[C@H]2N(C)C2=C(C(=O)NC2)[C@H]1c1ccccc1C [Compound 91]
Adipose cells of rats
  A: sugar transportation activity (EC50): 0.45 µg/mL
GK rats
  hypoglycemic action (blood glucose level): remarkable hypoglycemic action
KK-Ay mice
  hypoglycemic action (blood glucose level): remarkable hypoglycemic action
C57BL/KsJ-db/bdJcl mice [1]
  hypoglycemic action (oral glucose load): remarkable hypoglycemic action
C57BL/KsJ-db/bdJcl mice [2]
  hypoglycemic action (blood glucose level): remarkable hypoglycemic action
